Data as given in patent US5366983A, “Use of quaternary ammonium compounds to remove salmonella contamination from meat products” (The Board of Trustees of The University of Arkansas, priority 1992, dated 1994).
Values joined by “and” are separate entries in the source; they are usually repeats but may differ in a detail not shown here. Identical values can stand only once. “Also recorded” adds a separate entry of the source. Like-named read-outs stand apart in the source and are kept apart here.

Key:
[1] = tested on: Salmonella typhimurium ATCC 14028; assay: Effect on viability of Salmonella in suspension (Tables D-1 to D-3); type: cell-based
Experimental: EC50 values for four of the compounds were calculated from the bactericidal activity of the compounds as a function of molar concentration by a nonlinear regression algorithm.
In addition to the quaternary ammonium compounds, the antimicrobial activities of chelating agents Na2 -EDTA and EGTA were investigated. Na2 -EDTA was purchased from the Sigma Chemical Company (St. Louis, Mo.). Na2 -EDTA was dissolved in 0.04 M PPB prior to the assay and further dilutions were made in the same buffer.
EGTA was purchased from the Aldrich Chemical Company (Milwaukee, Wis.). EGTA was dissolved in 0.04 M PPB according to the procedure described by Harafuji and Ogawa (J. Biochem. 87:1305-1312 (1980)). After heating EGTA for 15 minutes at 80° C., the pH was adjusted to 7.0 by addition of NaOH. EGTA was filter-sterilized using a 0.2 μm Acro disc filter (Gelman Sciences; Ann Arbor, Mich.) prior to the assay. Further dilutions were made in sterile PPB.

[2] = tested on: Salmonella typhimurium on chicken skin; assay: Effect of surfactants on Salmonella attached to chicken skin, drumsticks (Tables F1-F4)
Experimental: The following experiments utilizing chicken legs were conducted to determine the killing potential of a variety of surfactants against Salmonella on the skin and free in solutions. To this end, chicken legs obtained from the Department of Agriculture at the University of Arkansas, Fayetteville, were incubated for thirty minutes at room temperature with a 1:5000 dilution of Salmonella typhimurium. The chicken legs were removed five at a time and then rinsed twice in tap water to remove the unattached and excess Salmonella. The rinse water was sampled, diluted, and then plated onto XLD pour plates. […] The chicken legs were then removed and rinsed twice in tap water to remove the released Salmonella and excess chemicals. Rinses were then sampled, diluted, and then plated onto XLD pour plates.
The chicken legs were then individually washed with 100 ml sterile double distilled water, and then shaken fifty times. Samples of the wash H2 O were diluted and plated onto XLD pour plates. The chicken legs were further swabbed after the washing step above. The swabs were then plated onto the XLD plates. A set of wash samples were enriched with TT Broth Base Hajna and then plated onto XLD plates.
All of the samples were plated in 1 ml aliquots onto XLD pour plates. A positive control sample incubated in sterile double distilled water at 4° C. was run for each of the aforementioned conditions. Treatments occurred at both 4° C. and 25° C. The data is reported as the mean number of CFU/ml. The ratio in the table represents the number of chicken legs out of a sample of ten chicken legs producing the notated number of colonies, as indicated by the +, ++, +++, or ++++.

[3] = tested on: Salmonella typhimurium ATCC 14028 attached to human buccal epithelial cells; type: cell-based
Experimental: Studies were conducted on the attachment of Salmonella typhimurium to human buccal epithelial cells using the modified procedure of Boussard et al., International J. Pharmaceutics 53: 253-256 (1989). In this study, the activities of cationic and anionic surfactant compounds as well as certain chelating agents were compared on the detachment of S. typhimurium from epithelial cells.
To this end, bacteria were grown on nutrient agar for 16 hours at 37° C. The cells were suspended in 0.008 M phosphate buffered saline (PBS) at pH 7.2 and washed two times at 4500 rpm for 10 minutes. The last suspension was diluted in PBS to obtain a cell concentration of 0.5 to 1×10^9 cells/ml. Human epithelial cells were obtained by swabbing the buccal surface of a healthy, nonsmoking donor. […] The number of living cells was estimated and the suspension diluted to 0.5 to 1×10^5 cells/ml.
Next, the suspension of the human buccal cells was mixed with an equal volume of the bacterial suspension (3.0 ml), or PBS (0.8 ml). Contact was allowed for 1.5 hours at 35° C. under agitation. The mixtures were then centrifuged for 10 minutes at 4500 rpm. Each suspension, 1.0 ml, was transferred into Eppendorf vials and washed with PBS at 1500 rpm for 10 minutes. After the washing, the cells were treated with 1.0 ml PBS or 1.0 ml of the test chemical solution. Treatment was performed by suspending and vortexing on a low speed for 30 seconds followed by centrifugation at 1500 rpm for 10 minutes.
After the treatment, the cells were washed once with PBS and then 20 μl of erythrosin B was added to each vial. The suspension was centrifuged at 1500 rpm for 10 minutes, and the cells were washed twice under the same conditions. The final pellet was suspended in 300 μl of PBS. This suspension was spread out onto microscope slides and dried overnight at room temperature. After counter staining with methylene blue, the slides were microscopically examined under oil immersion.

[4] = tested on: Salmonella typhimurium ATCC 14028 attached to human buccal epithelial cells; assay: microbe, parasite or virus in culture; type: cell-based; details: for adherence, mean value of attached bacteria: Table A-3
Experimental: Additional studies on the detachment of Salmonella typhimurium from human buccal epithelial cells were conducted.
S. typhimurium ATCC 14028 was grown in nutrient broth (BBL Microbiology system, Cockeysville, Md.) for 16 hours at 37° C. The cells were centrifuged and washed twice with 0.008 M phosphate buffered saline (PBS, at pH 7.2) at 4500 rpm for 10 minutes. The last suspension was diluted in PBS to obtain a cell concentration 0.5 to 1×10^9 cells/ml using spectrophotometric measurement. Human epithelial cells were obtained by swabbing the buccal surface of a healthy, nonsmoking donor. […] The number of living cells was estimated and the suspension was diluted to 0.5 to 1×10^5 cells/ml.
The suspension of the human buccal cells was mixed with an equal volume of the bacterial suspension (3.0 ml), or PBS (0.8 ml) in 10 ml Erlenmeyer flasks. Contact was allowed for 1.5 hours at 35° C. under agitation. After incubation, 1.0 ml of each suspension was transferred into an Eppendorff vial, centrifuged at 3000 rpm for 10 minutes, and washed with PBS. The cells were treated with 1.0 ml PBS or 1.0 ml of the test chemical solution. Treatment was performed by suspending, gently vortexing, and centrifuging at 1500 rpm for 10 minutes. After the treatment, the cells were washed and placed on microscopic slides for examination.
EC50 represents the inverse measurement of the potency of a compound. EC50 values were determined by a nonlinear regression of the detachment effect versus the cationic surfactant concentration data from Table A-3.

[5] = tested on: Salmonella typhimurium ATCC 14028; assay: Minimum growth inhibitory concentration, macrodilution; type: cell-based; details: Salmonella enterica, Mueler Hinton broth, macrodilution (NCCLS)
Experimental: Minimum growth inhibitory concentrations (MICs) of quaternary ammonium compounds and Na2 -EDTA for Salmonella were determined using Mueler Hinton broth (BBL Microbiology system, Cockeysville, Md.) and by the macrodilution method established by the National Committee for Clinical Laboratory Standards (NCCLS). Escherichia coli ATCC 25922 and Staphylococcus aureus ATCC 29213 were included in each assay as reference strains.

[6] = tested on: Salmonella typhimurium on chicken skin; assay: Prevention of attachment of Salmonella on excised chicken skin (Table F5); details: rinse water; 30 minutes at room temperature
Experimental: To determine the ability of surfactants to inhibit attachment or produce detachment of Salmonella, the following experiment was conducted. A hole was bored into the bottom of a 150 ml specimen cup. Chicken skin was excised from a drum stick and then placed over the cap of the specimen cup, and then the cap was screwed on. S. typhimurium was diluted 1:5000 with PBS or a surfactant. The surfactants were diluted appropriately. The skin was then inoculated with the solution containing the S. typhimurium and the surfactant for 30 minutes at room temperature.
Following incubation, the skin was washed. The rinse water was diluted appropriately in PBS and then plated onto XLD pour plates. The S. typhimurium was counted and reported as CFU/ml. The skin was swabbed so as to remove any remaining S. typhimurium using a nitroellulose lift and the CFU's/ml on the lift were also counted.

CCCCCCCCCCCC[n+]1ccccc1 [DPC, dodecylpyridinium chloride]
bacterial viability ([1]; 10 ug/ml, Table D-1): 1.39 ± 0.34 × 10^9 CFU/ml
bacterial viability ([1]; 100 ug/ml, Table D-1): 9.8 ± 2.17 × 10^8 CFU/ml and 8.85 ± 0.3 × 10^8 CFU/ml
bacterial viability ([1]; 200 ug/ml, Table D-1): < 10^5 CFU/ml
bacterial viability ([1]; 400 ug/ml, Table D-1): 0 CFU/ml
bacterial viability ([1]; 1000 ug/ml, Table D-1): 0 CFU/ml
Enrichment, chicken legs out of ten ([2]; 0.1%, 25° C.): 8/10
Rinse H2O ([2]; 0.1%, 25° C.): 0 CFU/ml
Surfactant Solution ([2]; 0.1%, 25° C.): 0 CFU/ml
Swabs, chicken legs producing the notated number of colonies ([2]; 0.1%, 25° C.): 0/10
Wash H2O, chicken legs producing the notated number of colonies ([2]; 0.1%, 25° C.): 7/10
Wash H2O, colonies ([2]; 0.1%, 25° C.): ++ (11-100)
Enrichment, chicken legs out of ten ([2]; 1.0%, 25° C.): 0/10
Rinse H2O ([2]; 1.0%, 25° C.): 0 CFU/ml
Surfactant Solution ([2]; 1.0%, 25° C.): 0 CFU/ml
Swabs, chicken legs producing the notated number of colonies ([2]; 1.0%, 25° C.): 0/10
Wash H2O, colonies ([2]; 1.0%, 25° C.): 0 CFU/ml
Enrichment, chicken legs out of ten ([2]; .01%, 25° C.): 10/10
Rinse H2O ([2]; .01%, 25° C.): + (1-10)
Surfactant Solution ([2]; .01%, 25° C.): 0 CFU/ml
Swabs, chicken legs producing the notated number of colonies ([2]; .01%, 25° C.): 6/10
Swabs, colonies ([2]; .01%, 25° C.): + (1-10)
Wash H2O, chicken legs producing the notated number of colonies ([2]; .01%, 25° C.): 10/10
Wash H2O, colonies ([2]; .01%, 25° C.): ++ (11-100)
adherence, mean value of attached bacteria ([3]; 10 ug/ml, Table A-1): 70 ± 35
adherence, mean value of attached bacteria ([3]; 25 ug/ml, Table A-1): 55 ± 23
adherence, mean value of attached bacteria ([3]; 50 ug/ml, Table A-1): 46 ± 28
adherence, mean value of attached bacteria ([3]; 75 ug/ml, Table A-1): 34 ± 20
adherence, mean value of attached bacteria ([3]; 100 ug/ml, Table A-1): 34 ± 18
adherence, mean value of attached bacteria ([3]; 500 ug/ml, Table A-1): 14 ± 10
adherence, mean value of attached bacteria ([4]; 100 ug/ml): 129 ± 87
adherence, mean value of attached bacteria ([4]; 150 ug/ml): 141 ± 66
adherence, mean value of attached bacteria ([4]; 175 ug/ml): 110 ± 73
adherence, mean value of attached bacteria ([4]; 250 ug/ml): 62 ± 50
adherence, mean value of attached bacteria ([4]; 300 ug/ml): 61 ± 34
adherence, mean value of attached bacteria ([4]; 450 ug/ml): 54 ± 23
EC50 ([4]; Salmonella enterica, Epithelial cell, read-out: EC50 (±SD), detachment): 716 ± 63 µM
MIC ([5]; read-out: MIC): 80 mg/L

O=C(O)CN(CCN(CC(=O)O)CC(=O)O)CC(=O)O [Na2 -EDTA, disodium ethylenectiaminetetraacetate, reference compound]
bacterial viability ([1]; 1,250 μg/ml, Table D-3): 9.48 ± 0.63 × 10^8 CFU/ml
bacterial viability ([1]; 2,500 μg/ml, Table D-3): 9.68 ± 0.16 × 10^8 CFU/ml
bacterial viability ([1]; 5,000 μg/ml, Table D-3): 9.89 ± 0.37 × 10^8 CFU/ml
bactericidal effect against S. typhimurium (in words) ([1]; viability testing in suspension): ineffective; also recorded: no bactericidal effect
adherence, mean value of attached bacteria ([3]; 500 ug/ml, Table A-2): 43 ± 21
adherence, mean value of attached bacteria ([3]; 1250 ug/ml, Table A-2): 22 ± 12
adherence, mean value of attached bacteria ([3]; 2500 ug/ml, Table A-2): 35 ± 18
adherence, mean value of attached bacteria ([3]; 10,000 ug/ml, Table A-2): 31 ± 14
effect on bacteria attached to the epithelial cells (in words) ([3]; chelating agents, Na2-EDTA at 1250 μg/ml): highly effective
MIC [5]: 625 mg/L

CCCCCCCCCCCCOS(=O)(=O)[O-].[Na+] [SDS, sodium dodecylsulfate, reference compound]
Enrichment, chicken legs out of ten ([2]; 0.1%, 4° C.): 10/10
Rinse H2O ([2]; 0.1%, 4° C.): ++ (11-100)
Surfactant Solution ([2]; 0.1%, 4° C.): ++ (11-100)
Swabs, chicken legs producing the notated number of colonies ([2]; 0.1%, 4° C.): 10/10
Swabs, colonies ([2]; 0.1%, 4° C.): ++ (11-100)
Wash H2O, chicken legs producing the notated number of colonies ([2]; 0.1%, 4° C.): 10/10
Wash H2O, colonies ([2]; 0.1%, 4° C.): ++ (11-100)
Enrichment, chicken legs out of ten ([2]; 0.5%, 4° C.): 10/10
Rinse H2O ([2]; 0.5%, 4° C.): + (1-10)
Surfactant Solution ([2]; 0.5%, 4° C.): ++ (11-100)
Swabs, chicken legs producing the notated number of colonies ([2]; 0.5%, 4° C.): 10/10
Swabs, colonies ([2]; 0.5%, 4° C.): ++ (11-100)
Wash H2O, chicken legs producing the notated number of colonies ([2]; 0.5%, 4° C.): 10/10
Wash H2O, colonies ([2]; 0.5%, 4° C.): ++ (11-100)
Enrichment, chicken legs out of ten ([2]; 1.0%, 4° C.): 10/10
Rinse H2O ([2]; 1.0%, 4° C.): + (1-10)
Surfactant Solution ([2]; 1.0%, 4° C.): + (1-10)
Swabs, chicken legs producing the notated number of colonies ([2]; 1.0%, 4° C.): 10/10
Swabs, colonies ([2]; 1.0%, 4° C.): ++ (11-100)
Wash H2O, chicken legs producing the notated number of colonies ([2]; 1.0%, 4° C.): 10/10
Wash H2O, colonies ([2]; 1.0%, 4° C.): ++ (11-100)
CFU/ml on XLD agar [6]: 4 × 10^2 CFU/ml
adherence, mean value of attached bacteria ([3]; 25 ug/ml, Table A-1): 43 ± 25
adherence, mean value of attached bacteria ([3]; 50 ug/ml, Table A-1): 26 ± 19
cytotoxicity to buccal epithelial cells ([3]; 500 ug/ml, Table A-1): cytotoxic
